# Data taken from patent publication US8747882B2, “Catheter assembly with bactericidal effect” (Astra Tech AB, priority 2005, dated 2014).
# Tested on: Escherichia coli
# Assay: MIC (Minimum Inhibitory Concentration) test, bacterial growth inhibition in synthetic urine (Bioscreen optical density)
# Type: cell-based
# Conditions: mixed 1+3 with synthetic urine
# Description: Experimental tests were conducted in order to verify the above-discussed results. In the experiments, solutions were prepared and sterilized by radiation (E-beam) or heat (autoclave). […] Further, some of the solutions were buffered to a predetermined pH-value with a citrate buffer (a buffer-system consisting of sodium citrates). All solutions were mixed with three volumetric parts synthetic urine in the experiments. Synthetic urine supports bacterial growth and were used as growth medium as well as negative control reference in the experiments. All experiments were made on the bacteria Escherichia coli, since the E. coli bacteria is normally the most relevant bacteria to inhibit for urinary catheter products. MIC (Minimum Inhibitory Concentration) tests were performed to assess the potential of a given substance and concentration to inhibit bacterial growth. The solutions were added to a growth solution containing a specified number of bacteria. The bacteria were then grown in microtiter-wells at 37 deg. C. in a Bioscreen-instrument for a period of at least 40 hours. The bacterial growth/inhibition was monitored in terms of optical density for the solution. Since all microorganisms increase the optical density of a solution during growth and multiplication, the Bioscreen measure of the transmittance/absorbance of light through the sample is correlated to the concentration of microorganisms. The results of the measurements of the different solutions are compared to a negative control reference, i.e. to synthetic urine, for each set of experiments.
# [1] = 0.1% w/w, 850 mOsm, pH 6.5, no buffer
# [2] = 0.3% w/w, 850 mOsm, pH 6.5, no buffer
# [3] = 1.0% w/w, 850 mOsm, pH 6.5, no buffer
Structure (SMILES),"Result (index): inhibition time relative to synthetic urine (0.05% w/w, 860 mOsm, pH 5.6, citrate buffer)","Result (index): inhibition time relative to synthetic urine (0.05% w/w, 860 mOsm, pH 5.9, citrate buffer)","Result (index): inhibition time relative to synthetic urine (0.05% w/w, 860 mOsm, pH 6.5, no buffer)","Result (index): inhibition time relative to synthetic urine (0.05% w/w, 870 mOsm, pH 5.0, citrate buffer)",Result (index): inhibition time relative to synthetic urine [1],Result (index): inhibition time relative to synthetic urine [2],Result (index): inhibition time relative to synthetic urine [3],"Result (index): inhibition time relative to synthetic urine (0.25% w/w, 860 mOsm, pH 5.0, citrate buffer)","Result (index): inhibition time relative to synthetic urine (0.25% w/w, 860 mOsm, pH 5.6, citrate buffer)","Result (index): inhibition time relative to synthetic urine (0.25% w/w, 860 mOsm, pH 5.9, citrate buffer)","Result (index): inhibition time relative to synthetic urine (0.25% w/w, 860 mOsm, pH 6.5, no buffer)","Result (index): inhibition time relative to synthetic urine (0.9% w/w, 900 mOsm, pH 6.5, no buffer)","Result (index): inhibition time relative to synthetic urine (3.0% w/w, 1700 mOsm, pH 6.5, no buffer)"
"C/C=C/C=C/C(=O)[O-].[K+] [KS, Potassium Sorbate]",1.8 index,1.7 index,1.2 index,>8.0 index,3.8 index,5.0 index,5.3 index,–,–,–,–,–,–
"O=C([O-])c1ccccc1.[Na+] [NaB, Sodium Benzoate]",–,–,–,–,2.3 index,4.0 index,5.3 index,>8.0 index,>8.0 index,>8.0 index,4.0 index,–,–
"[Cl-].[Na+] [NaCl, sodium chloride, reference compound]",–,–,–,–,–,–,–,–,–,–,–,1.0 index,1.5 index
